In patent US20060069132A1, “Azolecarboxamide herbicides” (priority 2004, published 2006):
Where two headings read alike, the source gives them in different places.

Tests used:
barnyardgrass = assay: Test B pre-/postemergence herbicide test; assay type: in vivo, Echinochloa crus-galli; conditions: Echinochloa crus-galli; for pest or weed control at 500 g/ha: 500 g ai/ha; for pest or weed control at 125 g/ha: 125 g ai/ha
Summary of the method: (§1)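 Greenhouse pot assay with simultaneous preemergence (treated seed) and postemergence (2–18 cm seedlings) applications of surfactant-containing, non-phytotoxic solvent formulations. Response scored visually 13–15 days later on a 0–100 scale, 100 meaning complete control.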

large crabgrass = assay: Test B pre-/postemergence herbicide test; assay type: in vivo, Digitaria sanguinalis; conditions: Digitaria sanguinalis; for pest or weed control at 500 g/ha: 500 g ai/ha; for pest or weed control at 125 g/ha: 125 g ai/ha
Summary of the method: (§2)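 Plants compared with untreated controls 13–15 days post-treatment and given a visual 0–100 injury score. Applications: preemergence to seeds; postemergence at 1- to 4-leaf (2–18 cm); paddy species flooded, 2-leaf stage. Vehicle non-phytotoxic, surfactant included.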

Surinam grass = assay: Test B pre-/postemergence herbicide test; assay type: in vivo, Urochloa decumbens; conditions: Urochloa decumbens; for pest or weed control at 125 g/ha: 125 g ai/ha
Summary of the method: as §2

wild oat = assay: Test B postemergence herbicide test; assay type: in vivo, Avena fatua; conditions: scale 0 (no effect) to 100 (complete control)
Summary of the method: (§3)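 Greenhouse test; postemergence application to plants at 1–4 leaves (2–18 cm); paddy species at 2 leaves; evaluated visually vs controls at 13–15 days; scale 0–100 (100 = complete control).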

giant foxtail = assay: Test B pre-/postemergence herbicide test; assay type: in vivo, Setaria faberi; conditions: Setaria faberi, 336 h; for pest or weed control at 500 g/ha: 500 g ai/ha; for pest or weed control at 125 g/ha: 125 g ai/ha
Summary of the method: as §2

cocklebur = assay: Test B pre-/postemergence herbicide test; assay type: in vivo, Xanthium strumarium; conditions: Xanthium strumarium; for pest or weed control at 500 g/ha: 500 g ai/ha; for pest or weed control at 125 g/ha: 125 g ai/ha
Summary of the method: as §1

[1] = system: small flower umbrella sedge; assay: Test B flooded paddy test; assay type: in vivo, Cyperus difformis; conditions: Cyperus difformis, 336 h, 1000 g ai/ha, visual rating, scale 0 to 100 (0 no effect, 100 complete control), 13 to 15 days, read-out: Sedge, Umbrella plant response rating
Summary of the method: as §3

velvetleaf = assay: Test B pre-/postemergence herbicide test; assay type: in vivo, Abutilon theophrasti; conditions: Abutilon theophrasti, 336 h; for pest or weed control at 125 g/ha: 125 g ai/ha
Summary of the method: as §2

blackgrass = assay: Test B postemergence herbicide test; assay type: in vivo, Alopecurus myosuroides; conditions: scale 0 (no effect) to 100 (complete control)
Summary of the method: as §3

pigweed = assay: Test B pre-/postemergence herbicide test; assay type: in vivo, Amaranthus retroflexus; conditions: Amaranthus retroflexus, 336 h; for pest or weed control at 125 g/ha: 125 g ai/ha
Summary of the method: as §2

ducksalad = assay: Test B flooded paddy test; assay type: in vivo, Heteranthera limosa; conditions: Heteranthera limosa, 336 h, 1000 g ai/ha, visual rating, scale 0 to 100 (0 no effect, 100 complete control), 13 to 15 days, read-out: Ducksalad plant response rating
Summary of the method: as §3

rice = assay: Test B flooded paddy test; assay type: in vivo, Oryza sativa; conditions: Oryza sativa, 336 h, 1000 g ai/ha, visual rating, scale 0 to 100 (0 no effect, 100 complete control), 13 to 15 days, read-out: Rice plant response rating
Summary of the method: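 Formulated test chemicals went onto postemergence plants measuring 2 to 18 cm, at one to four leaves. For the paddy assay, species had reached two leaves. Scoring took place 13–15 days later by eye, relative to untreated plants, using 0 for no effect up to 100 for full control.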

wheat = assay: Test B postemergence herbicide test; assay type: in vivo, Triticum aestivum; conditions: scale 0 (no effect) to 100 (complete control)
Summary of the method: as §3

corn = assay: Test B pre-/postemergence herbicide test; assay type: in vivo, Zea mays; conditions: Zea mays
Summary of the method: as §2

morningglory = assay: Test B pre-/postemergence herbicide test; assay type: in vivo, Ipomoea coccinea; conditions: Ipomoea, 336 h; for pest or weed control at 125 g/ha: 125 g ai/ha
Summary of the method: as §1

[2] = Postemergence, 500 g ai/ha, visual rating after 13 to 15 days

For `CCn1nc(C(C)(C)C)cc1C(=O)Nc1cccc(C(=O)OCCF)c1` [Compound 82, 2-fluoroethyl 3-[[[3-(1,1-dimethylethyl)-1-ethyl-1H-pyrazol-5-yl]-carbonyl]amino]benzoate], the pest or weed control at 500 g/ha (barnyardgrass; post-emergence, Postemergence, visual rating after 13 to 15 days, scale 0 (no effect) to 100 (complete control), read-out: Plant response rating, Barnyardgrass) was 20%, the pest or weed control at 125 g/ha (barnyardgrass; post-emergence, postemergence, visual rating, scale 0 (no effect) to 100 (complete control), read-out: Barnyardgrass plant response rating) was 10% and the pest or weed control at 500 g/ha (barnyardgrass; pre-emergence, Preemergence, scale 0 to 100, read-out: Barnyardgrass plant response rating) was 0%. For the same compound, the pest or weed control at 125 g/ha (barnyardgrass; pre-emergence, preemergence, 0 to 100 scale, 0 is no effect, 100 is complete control, read-out: Plant response rating, Barnyardgrass) was 0%, the pest or weed control at 500 g/ha (large crabgrass; post-emergence, Postemergence, visual rating after 13 to 15 days, scale 0 (no effect) to 100 (complete control), read-out: Plant response rating, Crabgrass, Large) was 20% and the pest or weed control at 125 g/ha (large crabgrass; post-emergence, postemergence, visual rating, scale 0 (no effect) to 100 (complete control), read-out: Crabgrass, Large plant response rating) was 10%. It also gave a pest or weed control at 500 g/ha (large crabgrass; pre-emergence, Preemergence, scale 0 to 100, read-out: Crabgrass, Large plant response rating) of 0%, a pest or weed control at 125 g/ha (large crabgrass; pre-emergence, preemergence, 0 to 100 scale, 0 is no effect, 100 is complete control, read-out: Plant response rating, Crabgrass, Large) of 0% and a pest or weed control at 500 g/ha (Surinam grass; post-emergence, Postemergence, 500 g ai/ha, visual rating after 13 to 15 days, scale 0 (no effect) to 100 (complete control), read-out: Plant response rating, Surinam Grass) of 60%. The pest or weed control at 125 g/ha (Surinam grass; post-emergence, postemergence, visual rating, scale 0 (no effect) to 100 (complete control), read-out: Surinam Grass plant response rating) was 30%, the pest or weed control at 125 g/ha (Surinam grass; pre-emergence, preemergence, 0 to 100 scale, 0 is no effect, 100 is complete control, read-out: Plant response rating, Surinam Grass) was 0% and the pest or weed control at 125 g/ha (wild oat; Avena fatua, post-emergence, 336 h, postemergence, 125 g ai/ha, visual rating, read-out: Oat, Wild plant response rating) was 10%. For the same compound, the “Plant response rating, Oat, Wild” value (wild oat; [2]) was 30, the pest or weed control at 500 g/ha (giant foxtail; post-emergence, Postemergence, visual rating after 13 to 15 days, scale 0 (no effect) to 100 (complete control), read-out: Plant response rating, Foxtail, Giant) was 10% and the pest or weed control at 125 g/ha (giant foxtail; post-emergence, postemergence, visual rating, scale 0 (no effect) to 100 (complete control), read-out: Foxtail, Giant plant response rating) was 10%. For the same compound, the pest or weed control at 500 g/ha (giant foxtail; pre-emergence, Preemergence, scale 0 to 100, read-out: Foxtail, Giant plant response rating) was 0%, the pest or weed control at 125 g/ha (giant foxtail; pre-emergence, preemergence, 0 to 100 scale, 0 is no effect, 100 is complete control, read-out: Plant response rating, Foxtail, Giant) was 0% and the pest or weed control at 500 g/ha (cocklebur; post-emergence, Postemergence, visual rating after 13 to 15 days, scale 0 (no effect) to 100 (complete control), read-out: Plant response rating, Cocklebur) was 100%. It also gave a pest or weed control at 125 g/ha (cocklebur; post-emergence, postemergence, visual rating, scale 0 (no effect) to 100 (complete control), read-out: Cocklebur plant response rating) of 80%, a pest or weed control at 500 g/ha (cocklebur; pre-emergence, Preemergence, scale 0 to 100, read-out: Cocklebur plant response rating) of 0% and a pest or weed control at 125 g/ha (cocklebur; pre-emergence, preemergence, 0 to 100 scale, 0 is no effect, 100 is complete control, read-out: Plant response rating, Cocklebur) of 0%. For the same compound, the pest or weed control at 1000 g/ha [1] was 40%, the pest or weed control at 500 g/ha (velvetleaf; post-emergence, Postemergence, 500 g ai/ha, visual rating after 13 to 15 days, scale 0 (no effect) to 100 (complete control), read-out: Plant response rating, Velvetleaf) was 90% and the pest or weed control at 125 g/ha (velvetleaf; post-emergence, postemergence, visual rating, scale 0 (no effect) to 100 (complete control), read-out: Velvetleaf plant response rating) was 80%. The pest or weed control at 125 g/ha (velvetleaf; pre-emergence, preemergence, 0 to 100 scale, 0 is no effect, 100 is complete control, read-out: Plant response rating, Velvetleaf) was 0%, the pest or weed control at 125 g/ha (blackgrass; Alopecurus myosuroides, post-emergence, 336 h, postemergence, 125 g ai/ha, visual rating, read-out: Blackgrass plant response rating) was 0% and the “Plant response rating, Blackgrass” value (blackgrass; [2]) was 10. The pest or weed control at 500 g/ha (pigweed; post-emergence, Postemergence, 500 g ai/ha, visual rating after 13 to 15 days, scale 0 (no effect) to 100 (complete control), read-out: Plant response rating, Pigweed) was 100%, the pest or weed control at 125 g/ha (pigweed; post-emergence, postemergence, visual rating, scale 0 (no effect) to 100 (complete control), read-out: Pigweed plant response rating) was 80% and the pest or weed control at 125 g/ha (pigweed; pre-emergence, preemergence, 0 to 100 scale, 0 is no effect, 100 is complete control, read-out: Plant response rating, Pigweed) was 0%. The pest or weed control at 1000 g/ha (ducksalad) was 20%, the plant injury at 1000 g/ha (rice) was 40% and the “Plant response rating, Wheat” value (wheat; [2]) was 20. For the same compound, the plant injury at 125 g/ha (wheat; Triticum aestivum, post-emergence, 336 h, postemergence, 125 g ai/ha, visual rating, read-out: Wheat plant response rating) was 20%, the Corn plant response rating (crop injury, 0 = no effect, 100 = complete kill) at 500 g/ha (corn; post-emergence, Postemergence, 500 g ai/ha, visual rating after 13 to 15 days, scale 0 (no effect) to 100 (complete control)) was 30% and the plant injury at 125 g/ha (corn; post-emergence, postemergence, 125 g ai/ha, visual rating, scale 0 (no effect) to 100 (complete control), read-out: Corn plant response rating) was 20%. For the same compound, the plant injury at 500 g/ha (corn; pre-emergence, Preemergence, 500 g ai/ha, scale 0 to 100, read-out: Corn plant response rating) was 0%, the Corn plant response rating (crop injury, 0 = no effect, 100 = complete kill) at 125 g/ha (corn; pre-emergence, preemergence, 125 g ai/ha, 0 to 100 scale, 0 is no effect, 100 is complete control) was 0% and the pest or weed control at 500 g/ha (morningglory; post-emergence, Postemergence, 500 g ai/ha, visual rating after 13 to 15 days, scale 0 (no effect) to 100 (complete control), read-out: Plant response rating, Morningglory) was 70%. The pest or weed control at 125 g/ha (morningglory; post-emergence, postemergence, visual rating, scale 0 (no effect) to 100 (complete control), read-out: Morningglory plant response rating) was 10% and the pest or weed control at 125 g/ha (morningglory; pre-emergence, preemergence, 0 to 100 scale, 0 is no effect, 100 is complete control, read-out: Plant response rating, Morningglory) was 0%.
